According to patent publication US20240294572A1, “Antimicrobial Peptides” (priority 2021, published 2024):
Converted amounts (≈) assume the structure as drawn. Non-standard residues stand in square brackets, D forms with d. Residues, ends and D or L forms follow the SMILES beside them. *: point of attachment. Decanoyl = CCCCCCCCCC(=O)*

Assays:
P. aeruginosa PAO1 = assay type: cell-based
In short: (§1)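 Broth microdilution per CLSI M07-A10 with minor changes: 2-fold peptide dilutions plus log-phase bacteria (OD600 ~0.5) diluted to 0.001 OD, in TSB. Incubated overnight at 37 °C; growth read at 630 nm.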

[1] = system: clinical strains of S. aureus, including USA200, USA400, Newman, and Mu50; assay type: cell-based
In short: as §1

S. aureus USA300 LAC = test: Bacterial resistance development, multiple passage experiment; assay type: cell-based; conditions: 14 passages/days at sub-MIC
Procedure: This experiment was performed similar to the MIC determination with a few modifications as described (Mishra, et al. (2019) Proc. Natl. Acad. Sci., 116:13517-13522). In short, an exponential phase S. aureus USA300 culture (i.e., optical density at 600 nm≈0.5) was diluted and partitioned into a 96-well polystyrene microplate with ˜10^5 bacteria per well (90 μL aliquots). After treatment with 10 μL of peptide or nafcillin solutions at various concentrations, microplates were incubated at 37° C. overnight and read on a ChroMate® 4300 Microplate Reader at 630 nm (Awareness Technology, FL). Of the wells with sub-MIC levels of the peptides that retained growth, approximately half of the control wells were again reinoculated in fresh TSB with sub-MIC concertation of peptides or antibiotics to attain exponential phase for MIC determination. Up to 15 serial passages of the bacteria cultures were conducted. The increase in the fold change (MIC on given passage/MIC recorded in first day of passage) was used to determine the degree of drug resistance.

[2] = system: S. aureus USA300 transposon mutant SAUSA300_0646 (graS); test: Antimicrobial susceptibility of transposon mutant; assay type: cell-based; conditions: mutant SAUSA300_0646 graS versus WT
Procedure: (§2) The antimicrobial susceptibility of over 20 MRSA transposon mutants were also tested, based on a transposon library screening, in the presence of LL-37 peptides (Golla, et al. (2020) ACS Infect. Dis., 6:1866-1881). This Nebraska Transposon Mutant Library of S. aureus USA300 consists of 1920 mutants, each with one nonessential gene disabled due to a transposon insertion (Fey, et al. (2013) mBio 4:e00537-12). The correct insertion of the transposon to each Staph mutant had been verified (Golla, et al. (2020) ACS Infect. Dis., 6:1866-1881). Antimicrobial susceptibility to the new peptide C10-KR8d was evaluated in the same manner as MIC assays. Susceptible strains could be inhibited at a peptide concentration lower than the MIC against the wild strain S. aureus JE2.

[3] = system: S. aureus USA300 transposon mutant SAUSA300_1037 (pheS); test: Antimicrobial susceptibility of transposon mutant; assay type: cell-based; conditions: mutant SAUSA300_1037 pheS versus WT
Procedure: as §2

[4] = system: S. aureus USA300 transposon mutant SAUSA300_0988 (trkA); test: Antimicrobial susceptibility of transposon mutant; assay type: cell-based; conditions: mutant SAUSA300_0988 trkA versus WT
Procedure: as §2

[5] = system: S. aureus USA300 transposon mutant SAUSA300_1089 (lspA); test: Antimicrobial susceptibility of transposon mutant; assay type: cell-based; conditions: mutant SAUSA300_1089 lspA versus WT
Procedure: as §2

[6] = system: S. aureus USA300 transposon mutant SAUSA300_1255 (mprF); test: Antimicrobial susceptibility of transposon mutant; assay type: cell-based; conditions: mutant SAUSA300_1255 mprF versus WT
Procedure: as §2

[7] = system: S. aureus USA300 transposon mutant SAUSA300_0645 (graR); test: Antimicrobial susceptibility of transposon mutant; assay type: cell-based; conditions: mutant SAUSA300_0645 graR versus WT
Procedure: as §2

[8] = system: S. aureus USA300 transposon mutant SAUSA300_1865 (vraR); test: Antimicrobial susceptibility of transposon mutant; assay type: cell-based; conditions: mutant SAUSA300_1865 vraR versus WT
Procedure: as §2

HaCaT cells = assay type: cell-based, human
Procedure: Peptides were assessed for potential cytotoxicity using HaCaT cells (Addexbio Technologies, CA). Briefly, cells were seeded at a density of 1×10^4 per well in a tissue culture 96-well plate. DMEM was supplemented with 10% fetal bovine serum (FBS) and incubated at 37° C. in a 5% CO2 atmosphere for 24 hours. Culture medium was aspirated and replaced with fresh serum free media. Cells were exposed to different concentrations of peptides for 1 hour at 37° C. in a 5% CO2 atmosphere. Post-incubation, the cells were washed and incubated with 100 μL of DMEM media containing 20 μL of MTS reagent for 2 hours at 37° C. Absorbance was read at 492 nm using a ChroMate® microplate reader (Awareness Technology, FL).

In vivo toxicity = test: In vivo toxicity; parameters: species or system C57BL/6 mice
Procedure: Toxicity was assessed in female C57BL/6 mice by the intraperitoneal administration of increasing doses of the antimicrobial peptide C10-KR8d (10, 20, and 40 mg/kg) and a control group without peptide treatment. The animals were then observed for 5 days (twice a day). The number of moribund/dead animals for each of the doses was noted and plotted.
Mice were caged, fed, and environmentally adapted as described (Lakshmaia, et al. (2020) Proc. Natl. Acad. Sci., 117:19446-19454). All animal manipulations were performed in a class II laminar flow biological safety cabinet.

Row | Structure (SMILES) | MIC (μM) PA (P. aeruginosa PAO1) | MIC against clinical strains of S. aureus [1] | MIC increase in multiple passage experiment (S. aureus USA300 LAC) | Susceptible? [2] | Susceptible? [3] | Susceptible? [4] | Susceptible? [5] | Susceptible? [6] | Susceptible? [7] | Susceptible? [8] | relative toxicity to HaCaT cells (HaCaT cells) | MTD at 5 days (In vivo toxicity; female, C57BL/6, mouse, in vivo, ip, C57BL/6 mice, read-out: maximal tolerated dose (MTD)) | survival of mice (In vivo toxicity; i.p. 40 mg/kg) | survival of mice (In vivo toxicity; i.p. 10 or 20 mg/kg, 5 days observation)
1 | CCCCCCCCCC(=O)N[C@@H](CCCCN)C(=O)N[C@@H](CCCNC(=N)N)C(=O)N[C@H](C(=O)N[C@@H](Cc1c[nH]c2ccccc12)C(=O)N[C@@H](CCC(N)=O)C(=O)N[C@@H](CCCNC(=N)N)C(=O)N[C@H](C(=O)N[C@@H](CCCCN)C(N)=O)[C@@H](C)CC)[C@@H](C)CC [Peptide C10-KR8] (Decanoyl-KRIWQRIK-NH2) | 6.2 µM (≈ 7.94 µg/mL) | 1.6 to 6.2 µM | – | – | – | – | – | – | – | – | – | – | – | –
2 | CCCCCCCCCC(=O)N[C@H](CCCCN)C(=O)N[C@H](CCCNC(=N)N)C(=O)N[C@@H](C(=O)N[C@H](Cc1c[nH]c2ccccc12)C(=O)N[C@H](CCC(N)=O)C(=O)N[C@H](CCCNC(=N)N)C(=O)N[C@@H](C(=O)N[C@H](CCCCN)C(N)=O)[C@H](C)CC)[C@H](C)CC [Peptide C10-KR8d] (Decanoyl-[dK][dR][dI][dW][dQ][dR][dI][dK]-NH2) | – | – | no changes | Yes | Yes | Yes | Yes | Yes | Yes | Yes | slightly more toxic than C10-KR8 | ≥ 20 mg/kg | all mice died in a day | all mice survived
